Data as given in US10774039B2, “Cyclopropene amino acids and methods” (United Kingdom Research and Innovation, priority 2014, dated 2020).

Test: In vitro labelling of purified sfGFP150 proteins with tetrazine-dye conjugate 4a, time course and rate constant
Conditions: restated in example 6
Method: FIG. 2C: Determining the rate constant for labelling of sfGFP-3 (10.6 sfGFP incorporating 3 at position 150), with 10 equivalents of 4a. 2 nmol of purified sfGFP-3, (10.6 μM in 20 mM Tris-HCl, 100 mM NaCl, 2 mM EDTA, pH 7.4) were incubated with 20 nmol of tetrazine-dye conjugate 4a (10 μl of a 2 mM solution in DMSO). At different time points 8 μl, aliquots were taken from the solution and quenched with a 700-fold excess of BCN and plunged into liquid nitrogen. Samples were mixed with NuPAGE LDS sample buffer supplemented with 5% β-mercaptoethanol, heated for 10 min to 90° C. and analyzed by 4-12% SDS page. The amounts of labelled proteins were quantified by scanning the fluorescent bands with a Typhoon Trio phosphoimager (GE Life Sciences). Bands were quantified with the ImageQuant™ TL software (GE Life Sciences) using rubber band background subtraction. The rate constant was determined by fitting the data to a single-exponential equation. The calculated observed rate k′ was divided by the concentration of 4a to obtain rate constant k for the reaction. Measurements were done in triplicate. All data processing was performed using Kaleidagraph software (Synergy Software, Reading, UK). […]

Q: For `CC1=CC1COC(=O)NCCCC[C@H](N)C(=O)O` (stereo partly drawn) [amino acid 3, N^ε-[((2-methylcycloprop-2-en-1-yl)methoxy)carbonyl]-L-lysine], which “on-protein rate constants of reaction with tetrazines” value is on record?
A: The value was 27 M⁻¹ s⁻¹.
